5 molecules from PubChem BioAssay (NCI) can be followed below.

The structures appear in SMILES notation.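 All cell lines were grown in 96-well plates and treated with compound for 48 hours. TGI is the concentration that stops growth completely.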

Common to all, as to test: DTP human tumour cell line panel, 48 h
Assay [1] has as its system NCI-H226 lung.
Assay [2] concerns U251 CNS.
In assay [3] the test system is EKVX NSCLC.
For assay [4], the system named is A549 NSCLC.
Assay [5] concerns MCF7 breast.
The subject of assay [6] is HCC-2998 colon.
In assay [7] the test system is SF-539 CNS.
The test system of assay [8] is SK-MEL-2 melanoma.
Assay [9] concerns COLO 205 colon.
For assay [10], the system named is LOX IMVI melanoma.
Assay [11] deals with HOP-92 NSCLC.
In assay [12] the test system is K-562 leukemia.
The test system of assay [13] is HCT-116 colon.
Assay [14] relates to OVCAR-3 ovarian.
Assay [15] deals with SF-295 CNS.
Assay [16] deals with NCI/ADR-RES ovarian.
Assay [17] relates to MDA-MB-435.
For assay [18], the system named is MDA-N.
Assay [19] deals with M14 melanoma.
In assay [20] the test system is SR leukemia.

As to `O=C(O)CCCCCCCCC(=O)O`, the TGI in assay [1], in assay [2], in [3], in [4], in assay [5] and in [6] was over 500 µM each time. For the same molecule, the TGI in assay [7] was over 79.3 µM; in assay [8], over 500 µM; in [9], over 500 µM; in assay [10] it was over 500 µM; in assay [11] it was over 500 µM; in assay [12], over 500 µM. In addition, the total growth inhibition concentration (TGI) in assay [13], in assay [14], in [15] and in assay [16] was over 500 µM throughout.

Turning to `COc1ccc([C@H]2C=[N+]([O-])O[C@H](OC3CCCC3)[C@@H]2OC(C)=O)cc1OC`, the total growth inhibition concentration (TGI) was over 100 µM in assay [1]; over 100 µM in [2]; 67.5 µM in assay [17]; 50.2 µM in assay [3]; 69.2 µM in assay [18]; 44.4 µM in assay [19]. Besides, the total growth inhibition concentration (TGI) is over 100 µM in assay [20]; over 100 µM in [4]; 49.5 µM in assay [5]; 72.8 µM in assay [6]; 38 µM in assay [7]; over 100 µM in [8]. For the same molecule, the concentration for total growth inhibition (TGI) in assay [9] is 30.9 µM; in assay [10], 31.3 µM; in [11], 32.9 µM; in assay [12] it was over 100 µM; in assay [14], 72.4 µM; in [15], over 100 µM. In assay [16], this molecule returned a TGI of 63.6 µM.

For `O=S1(=O)C[C@@H](NCc2ccccc2)[C@H](NCc2ccccc2)C1`, the TGI in [1], in [2], in assay [17], in assay [3], in assay [18] and in [19] was over 100 µM in each case. In addition, the total growth inhibition concentration (TGI) in assay [20], in assay [4], in [5], in [6], in [7] and in assay [8] was over 100 µM each time. The TGI in [9], in [10], in [11], in assay [12], in assay [13] and in assay [14] was over 100 µM in each case. Also, the TGI in assay [15] and in assay [16] was over 100 µM throughout.

Turning to `O=C1c2cccc(O)c2C(=O)c2c(O)cc(CO)cc21`, the TGI in [1], in assay [2], in assay [19], in [20], in [4] and in [6] was over 100 µM each time. Further, the TGI in assay [8], in [9], in assay [10], in assay [11], in assay [13] and in assay [15] was over 100 µM in each case.

For the molecule `Cc1cc(C)c(/C=C(\C(=C/c2c(C)cc(C)cc2C)[N+](=O)[O-])[N+](=O)[O-])c(C)c1`, the TGI in assay [2], in [17], in assay [3], in assay [18], in assay [19] and in [20] was over 100 µM each time. The total growth inhibition concentration (TGI) in assay [4], in assay [5], in assay [6], in assay [7], in [8] and in assay [9] was over 100 µM in each case. The concentration for total growth inhibition (TGI) in [10], in assay [11], in [12], in [13], in assay [14] and in assay [15] was over 100 µM throughout.
